The values below are quoted from earlier work in patent publication US20210009750A1, “3D PRINTING COMPOSITION FOR BIOMATERIALS” (TISSIUM SA, priority 2018, published 2021).

In the data set the test system is mammalian cell types. The settings on record: broad range of mammalian cell types and species.

For the compound `CC(C)(O)C(=O)c1ccc(OCCO)cc1` [Irgacure 2959, 2-hydroxy-1-[4-(hydroxyethoxy)phenyl]-2-methyl-1-propanone], the “cytotoxicity (cell death)” value was “minimal cytotoxicity”.
